Experimental data from PubChem BioAssay (NCI).
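Results reflect a 48-hour exposure of cells in 96-well plates to compound at five concentrations. GI50 is the concentration that inhibits growth by half. The concentration for full growth arrest is given as TGI.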

Columns and labels:
Assay in all cases: inhibition of tumour cell growth, NCI panel, 48 h
A549 NSCLC = test system: A549 NSCLC
UACC-257 melanoma = test system: UACC-257 melanoma
OVCAR-5 ovarian = test system: OVCAR-5 ovarian
HT29 colon = test system: HT29 colon
MDA-MB-231 breast = test system: MDA-MB-231 breast
NCI-H460 lung = test system: NCI-H460 lung
NCI/ADR-RES ovarian = test system: NCI/ADR-RES ovarian
HS 578T breast = test system: HS 578T breast
ACHN renal = test system: ACHN renal
UACC-62 melanoma = test system: UACC-62 melanoma
CCRF-CEM leukemia = test system: CCRF-CEM leukemia

| Structure (SMILES) | TGI (A549 NSCLC) | TGI (UACC-257 melanoma) | GI50 (OVCAR-5 ovarian) | TGI (OVCAR-5 ovarian) | GI50 (HT29 colon) | TGI (HT29 colon) | TGI (MDA-MB-231 breast) | TGI (NCI-H460 lung) | TGI (NCI/ADR-RES ovarian) | TGI (HS 578T breast) | TGI (ACHN renal) | TGI (UACC-62 melanoma) | TGI (CCRF-CEM leukemia) |
| --- | --- | --- | --- | --- | --- | --- | --- | --- | --- | --- | --- | --- | --- |
| COc1cc(OC)c2[nH]c3c(O)c(-c4c(C)cc5c([nH]c6c(OC)cc(OC)cc65)c4O)c(C)cc3c2c1 | 13.3 µM | 19 µM | 9.03 µM | 16.2 µM | 8.03 µM | 14.8 µM | 19.1 µM | 16.6 µM | 16.6 µM | 20.2 µM | 15.8 µM |  |  |
| COC1=C(C)C(=O)c2c(cc3c(c2O)C(C)(CCC=C(C)C)C(C)O3)C1=O (configuration not stated) | 39.8 µM | > 100 µM |  | > 100 µM |  | > 100 µM |  | 27.2 µM |  |  | > 100 µM | 97 µM | > 100 µM |
| O=C1c2ccccc2N2Oc3ccccc3C12c1ccccc1 (configuration not stated) | > 100 µM | > 100 µM |  |  |  | > 100 µM |  |  |  |  | > 100 µM | > 100 µM | > 100 µM |
| COc1cc2c(cc1OC)[C@@H](Nc1ccc(F)cc1)C1COC(=O)[C@@H]1C2c1cc(OC)c(O)c(OC)c1 (some centres not stated) | 15 µM | > 79.6 µM |  | > 100 µM |  | > 58.3 µM |  | 2.16 µM |  |  | 2.49 µM | 19.9 µM | 0.846 µM |
| CC1=C(C(=O)N[C@@H](CC(C)C)C(=O)O)N2C(=O)[C@@H](NC(=O)C(N)c3ccccc3)[C@H]2SC1 (some centres not stated) | > 100 µM | > 100 µM |  | > 100 µM |  |  | > 100 µM | > 100 µM | > 100 µM | > 100 µM | > 100 µM | > 100 µM | > 100 µM |
| C#CC1(O)CCCCCCCCC2(CCCCCCCC1)OCCO2 | 26.8 µM | 39.2 µM |  | 37.8 µM |  | 35.4 µM |  | 44.2 µM | 34.7 µM | 38.9 µM | 27.3 µM | 28.6 µM |  |
| CCOC(=O)C(Cl)(NC(=O)OCc1ccccc1)C(F)(F)F (configuration not stated) | > 100 µM | > 100 µM |  | > 100 µM |  | > 100 µM | > 100 µM |  | > 100 µM | > 100 µM | > 100 µM |  | > 100 µM |
| CCc1ccccc1NC(=O)/C(N=O)=C(/C)O | > 100 µM | > 100 µM |  |  |  | > 100 µM |  | > 100 µM |  |  | > 100 µM | > 100 µM | > 100 µM |
| N#Cc1c(O)c(/C=N/c2ncccn2)c(=O)n2c1[nH]c1ccccc12 | > 100 µM | > 100 µM |  | > 100 µM |  | > 100 µM | > 100 µM | > 100 µM | > 100 µM | > 100 µM |  |  | > 100 µM |
| ON=C(CC(O)(C(F)(F)Cl)C(F)(F)Cl)CC(O)(C(F)(F)Cl)C(F)(F)Cl | > 10 µM | > 10 µM |  |  |  | > 10 µM |  | > 10 µM | > 10 µM | > 10 µM | > 10 µM | > 10 µM | > 10 µM |
| Cc1cccc(N/C(Sc2ccccc2)=C(/C(Cl)=C(Cl)Cl)[N+](=O)[O-])c1 | 47.4 µM | 47.2 µM |  | 40.8 µM |  | 43.1 µM | 53.9 µM | > 100 µM | 39.1 µM |  | 74.9 µM | 54.6 µM | > 100 µM |
| CCOC(=O)NN(C(=O)OCC)c1c(C)cc(C)cc1C | > 100 µM | > 100 µM |  | > 100 µM |  | > 100 µM | > 100 µM | > 100 µM | > 100 µM | > 100 µM |  | > 100 µM | > 100 µM |
| Cc1ccc2c(/C=C/c3ccc(N(C)C)cc3)ccc(C(C)C)cc1-2 | > 100 µM | > 100 µM |  | > 100 µM |  | > 100 µM | > 100 µM |  | > 100 µM | > 100 µM | > 100 µM | > 100 µM | > 100 µM |
| CC1(C)[C@@H]2C[C@H]1c1cnc(-c3ccccn3)cc1C2CCCCC[C@@H]1c2cc(-c3ccccn3)ncc2[C@@H]2C[C@H]1C2(C)C (some centres not stated) | > 36.7 µM |  |  | > 100 µM |  | > 33.3 µM | 89 µM | 24.9 µM | > 100 µM |  | > 100 µM | > 34 µM | 6.28 µM |
| COC(=O)C12OC3CO[Si](C(C)C)(C(C)C)O[Si](C(C)C)(C(C)C)OC3C1Oc1nc(=O)ccn12 (configuration not stated) | 28.6 µM | 29.1 µM |  | 28.6 µM |  | 29.3 µM | 29.5 µM |  | 29.2 µM | 7.3 µM | 32.2 µM | 27.4 µM | 41 µM |
| CCCCCCCCC/C=C1\CCC(CN(C)C)C1=O (configuration not stated) | 18 µM | 3.52 µM |  | 28 µM |  | 3.16 µM |  | 12.5 µM |  |  | 4.98 µM | 5.73 µM | 4.82 µM |
| CC1C(C#N)(C#N)C(C#N)=C(N)C1(Cl)[N+](=O)[O-] (configuration not stated) | 54.6 µM | 24.5 µM |  | 29.6 µM |  | 23.5 µM | 26.9 µM |  | 34.2 µM | 46.1 µM | 23.7 µM | 24 µM | 5.12 µM |
| Cc1n(Cc2ccccc2)nc2sc(N)n[n+]12 | > 100 µM | > 100 µM |  | > 100 µM |  | > 100 µM |  |  | > 100 µM | > 100 µM | > 100 µM | > 100 µM | > 100 µM |
| Cn1c(N)nc(-c2ccc(Cl)cc2)c1SSc1c(-c2ccc(Cl)cc2)nc(N)n1C | 27.2 µM | 3.52 µM |  | 3.26 µM |  | 4.74 µM | 2.88 µM | 15.3 µM |  | > 100 µM | 5.14 µM | 5.03 µM | 5.05 µM |
| CN(C)Cc1cc(N=Nc2ccc(Cl)cc2)cc(CN(C)C)c1O | 21.3 µM | 31.5 µM |  |  |  | 19 µM | 20.9 µM | 18.1 µM | 13.6 µM | 27.7 µM | 19 µM | 30.2 µM | 7 µM |
| CSc1nc2c(c(=O)[nH]1)N=C(c1ccccc1)CC(c1ccccc1)N2 (configuration not stated) | > 100 µM | > 100 µM |  | > 100 µM |  | > 100 µM | 45.5 µM | 27.2 µM | > 100 µM |  | 75.3 µM | 57.1 µM | > 100 µM |
